Assay results published in PubChem BioAssay (NCI).
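A five-concentration, 48-hour dose response in 96-well plates underlies each endpoint, interpolated linearly between surrounding concentrations. The concentration for 50% growth inhibition is given as GI50. TGI denotes the concentration required for complete inhibition of growth.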

How the values were obtained:
Assay in all cases: DTP human tumour cell line panel, 48 h
LXFL 529 NSCLC = tested on: LXFL 529 NSCLC
CCRF-CEM leukemia = tested on: CCRF-CEM leukemia
TK-10 renal = tested on: TK-10 renal
SW-620 colon = tested on: SW-620 colon
UO-31 renal = tested on: UO-31 renal
NCI-H23 lung = tested on: NCI-H23 lung
M14 melanoma = tested on: M14 melanoma
SF-539 CNS = tested on: SF-539 CNS
DMS 114 small cell lung = tested on: DMS 114 small cell lung
LOX IMVI melanoma = tested on: LOX IMVI melanoma
HOP-18 NSCLC = tested on: HOP-18 NSCLC

SMILES	TGI (LXFL 529 NSCLC) [µM]	TGI (CCRF-CEM leukemia) [µM]	TGI (TK-10 renal) [µM]	TGI (SW-620 colon) [µM]	TGI (UO-31 renal) [µM]	TGI (NCI-H23 lung) [µM]	TGI (M14 melanoma) [µM]	TGI (SF-539 CNS) [µM]	TGI (DMS 114 small cell lung) [µM]	TGI (LOX IMVI melanoma) [µM]	TGI (HOP-18 NSCLC) [µM]	GI50 (CCRF-CEM leukemia) [µM]	GI50 (TK-10 renal) [µM]	GI50 (SW-620 colon) [µM]	GI50 (UO-31 renal) [µM]	GI50 (NCI-H23 lung) [µM]	GI50 (M14 melanoma) [µM]	GI50 (SF-539 CNS) [µM]	GI50 (LOX IMVI melanoma) [µM]
O=C(C(=O)c1cc2ccccc2[nH]1)c1cc2ccccc2[nH]1	> 347	> 347	> 347	> 347	> 347	> 347	> 347	> 347	> 347	> 347									
Cc1cnc2ccc(C)c([N+](=O)[O-])c2c1NCCCN(C)C		> 100	> 100	> 100	> 100	> 100	> 100	> 100	> 100	> 100									
C/C(=N\N=C(N)N)C(CN1CCCCC1)C(c1ccccc1)c1c(O)c2ccccc2oc1=O (stereo not given)	> 100	> 100	> 100	> 100		> 100	> 100	> 100	> 100	> 100									
COc1ccc(Cc2c3cc(O)c(=O)cc-3ccn2C)cc1		> 76.3	> 100	> 100	> 73	> 100	30.5	70.4	62.4	34.5	> 100								
O=C(O)c1cc(-c2ccc3cc4c(cc3c2)OCO4)nc2ccccc12		35.4	> 100	> 100	28.1	> 100	> 100	> 100		> 100									
CN(Cc1ccccc1)Cn1ccnc1		> 71.2	> 100	> 100	> 100	> 100	39.6	> 100		> 100									
Cc1nn(CNc2ccccc2C(F)(F)F)c(=S)n1/N=C/c1cccc2cccnc12		> 100	> 100	> 100	> 100	> 100	> 100	> 100		> 100		18.9	> 100	65.8	> 100	> 100	57.9	> 100	34.7
O=c1c2ccccc2sc2c(NCCCNCCO)nc3ccccc3c12		3.57	3.38	2.74	3	7.55	3.33	3.23		2.82		1.59	1.91	1.31	1.18	2.01	1.71	1.65	1.28
COc1ccc2ncn(-c3cc(O[C@H](C)c4ccccc4C(F)(F)F)c(C(N)=O)s3)c2c1		14.5	7.22	6.01	12.4	5.9	3.23	4.07		3.56		0.0821	1.33	0.0749	1.79	0.113	0.0989	0.131	0.105
N#C/C(=C\c1cc(O)cc(O)c1)C(N)=O	> 100	> 100	> 100	> 100	> 100	> 100	> 100	> 100	> 100										
C/C=C(\C)c1cc(=O)c2c(C)cc3c(c2o1)C(=O)c1c(O)c(C2CC(C)(N(C)C)C(OC(C)=O)C(C)O2)cc(C2CC(N(C)C)C(O)C(C)O2)c1C3=O (stereo not given)		> 50	> 30	> 27.7	7.87	> 11.9	1.85	2.59		6.91									
O=C1C=C(Nc2ccc(Cl)cc2Cl)c2ccccc2C1=O	> 100	85	> 100	> 100	> 100	54.5	57.8	> 100	64.1										
Cc1cc2nc(NCCN)n(Cc3ccc(F)c(Cl)c3)c2cc1C		29.3	31.2	10.8	24	29.2	7.07	26		14.5		12.7	16.9	3.31	10.7	14.5	2.52	11.7	3.73
COc1ccc(C(=O)C(CN(C)C)CN(C)C)cc1		5.13	6.98	3.98	2.91	41	13.5	20.7		5.04		1.39	2.32	1.78	1.37	14.2	3.53	7.6	2.08
